We go through 1 compound from US20190209501A1, “COMPOSITIONS AND METHODS OF USE OF BETA-HYDROXY-BETA-METHYLBUTYRATE (HMB) […] IN[…]” (Texas Tech University Office of Research Commercialization, priority 2018, published 2019).

Holding throughout (type): in vivo, human
A short description of data set [1]: Muscle thickness of elbow flexors and knee extensors via ultrasonography. To be noted: for MTEF ES (d) / MTKE ES (d): Cohen's d baseline vs week 8; for MTEF Δ (%) / MTKE Δ (%): change baseline to week 8 relative to baseline; for MTEF (cm) Week 8: muscle thickness elbow flexors; for MTEF (cm) Week 8 / MTKE (cm) Week 8: mean ± SE; for MTKE (cm) Week 8: muscle thickness knee extensors; for MTEF (cm) Δ / MTKE (cm) Δ: week 8 minus baseline. On the procedure:
In addition to whole-body composition estimates, muscle thickness of the elbow flexors (MTEF) and knee extensors (MTKE) was evaluated via ultrasonography (Logiq e, General Electric. Boston, Mass. USA) at baseline and study completion. […] These distances were measured while the participant was standing, and measurement distances at baseline were recorded and used at the final assessment. All assessments took place on the right side of the body. In the supine position, the participant's arm was abducted to ˜80° with the arm supported for elbow flexor measurements. For knee extensor measurements, a foam pad was placed beneath the knee to allow an ˜10° bend at the knee joint. For all assessments, transmission gel was generously applied to the marked measurement location, and minimal pressure was applied by the transducer in order to avoid tissue compression. Three single transverse images were taken at each location, with values averaged for analysis. The gain and depth of the transducer were kept consistent for all measurements at a given site. Ultrasound images were blinded for analysis and analyzed by a single blinded researcher using ImageJ (v. 1.52a; National Institutes of Health, USA). The reliability of the researcher analyzing ultrasound images was determined through blinded analysis of 28 randomly selected ultrasound images on two occasions. This exercise produced minimum differences (MD) of 0.07 cm for MTEF and 0.14 cm for MTKE.

Data set [2] can be described thus: Percent body fat by underwater weighing, HMB without intermittent fasting (Panton et al.). To be noted: 3 g/d Calcium-HMB without intermittent fasting + RT. On the procedure:
In an earlier study described in Panton et al. (54) trained and untrained females (n=18, 27±2.1 y, 62.3±2.2 kg) were randomized to 3 g/d Calcium-HMB without intermitted fasting. The HMB only group completed 4 weeks of supervised resistance training and trained three times per week. Body composition was measured before and after the 4 weeks of training using underwater weighing procedures (55). Percent body fat (BF %) was estimated from the Siri equation^5.

Data set [3] in a line: Urinary HMB concentrations. The conditions noted are these: for Urinary HMB concentration, Intervention: during intervention, 3 g/d calcium HMB. An excerpt: At baseline and after 4 and 8 weeks of the intervention, participants completed two testing sessions: (1) a morning assessment conducted after an overnight fast for assessment of body composition, metabolism, vascular measures and subjective factors: and (2) an afternoon assessment of muscular performance, conducted in the non-fasted state. For morning assessments, participants reported to the laboratory after abstention from eating, drinking, exercising and utilizing caffeine or nicotine for ≥8 hours. Participants were interviewed to confirm adherence to these pre-assessment restrictions. The actual abstention from exercise was ≥14 hours due to the scheduling of exercise sessions. Participants reported to the laboratory wearing athletic clothing, and all metal and accessories were removed from the body prior to testing. Each participant voided her bladder and provided a urine sample. Urine samples were assessed for urine specific gravity (USG) using a digital refractometer (PA201X-093. Misco, Solon, Ohio. USA). Additionally, a standard urinary HCG test was performed to confirm that each participant was not pregnant. Finally, urinary samples were frozen at −80° C. for assessment of urinary HMB content after study unblinding. After voiding, each participant's body mass (BM) and height were determined via digital scale with stadiometer (Seca 769, Hamburg, Germany). Blood draws were performed at Texas Tech University Student Health Services after an overnight fast, and participants completed at-home saliva collections for assessment of the cortisol awakening response (CAR).

Consider `CC(C)(O)CC(=O)O` [TRFHMB, β-hydroxy-β-methylbutyrate], for which, in data set [1] (ITT analysis), the “MTEF ES (d)” value is listed as 0.68, the “MTKE ES (d)” value is 0.33, the “MTEF Δ (%)” value amounted to 8% and the “MTKE Δ (%)” value was 5%. In data set [1] (ITT analysis), the “MTEF (cm) Week 8” value worked out at 2.96 ± 0.09 cm, the “MTKE (cm) Week 8” value is given as 4.33 ± 0.16 cm, the “MTEF (cm) Δ” value turned out to be 0.22 cm and the “MTKE (cm) Δ” value is 0.19 cm. For the same compound, in data set [1] (PP analysis), the “MTEF ES (d)” value was determined as 0.86, the “MTKE ES (d)” value amounted to 0.31, the “MTEF Δ (%)” value is on record as 9% and the “MTKE Δ (%)” value is on record as 4%. For the same compound, in data set [1] (PP analysis), the “MTEF (cm) Week 8” value came to 2.97 ± 0.10 cm, the “MTKE (cm) Week 8” value turned out to be 4.44 ± 0.20 cm, the “MTEF (cm) Δ” value is recorded as 0.24 cm and the “MTKE (cm) Δ” value is reported as 0.17 cm. Besides, in data set [2], the “BF % 4-week effect size (d)” value was −0.15. For the same compound, in data set [3] (ITT analysis), the “Urinary HMB concentration, Intervention” value is on record as 5033 ± 751 nmol/mL. Further, the “Urinary HMB concentration, Intervention” value in data set [3] (PP analysis) is recorded as 6553 ± 1117 nmol/mL. Besides, the “Change in urinary HMB concentrations from pre-intervention to intervention” value in data set [3] (both ITT and PP analyses) is given as “increased significantly”.
